According to PMC7900708 (Biochemistry and Biophysics Reports, 2021):

What was measured:
[1] = biological target: T1, MtuUng (Mycobacterium tuberculosis uracil DNA glycosylase) (Mycobacterium tuberculosis, UniProt P9WFQ9); assay: Molecular beacon fluorescence assay of MtuUng activity and inhibition; type: biochemical
T1 sequence (P9WFQ9 1-227): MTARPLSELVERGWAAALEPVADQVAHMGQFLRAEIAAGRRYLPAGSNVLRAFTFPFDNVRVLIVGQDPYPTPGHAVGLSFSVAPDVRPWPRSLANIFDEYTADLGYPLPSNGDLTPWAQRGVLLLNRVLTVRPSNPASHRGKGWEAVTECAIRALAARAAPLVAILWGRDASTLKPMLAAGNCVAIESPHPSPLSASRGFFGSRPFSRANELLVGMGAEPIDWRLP

uracil DNA glycosylase = conditions: cited from earlier work

SMILES	IC50 [1] [mM]	further results
O=c1[nH]ccc(=S)[nH]1 [4-Thio-Uracil]	3.57 ± 0.35	–
Nc1c[nH]c(=O)[nH]c1=O [5-Amino-Uracil]	7.18 ± 0.97	–
O=c1[nH]cc(Br)c(=O)[nH]1 [5-Bromo-Uracil]	13.6 ± 0.73	–
O=c1[nH]cc(Cl)c(=O)[nH]1 [5-Chloro-Uracil]	8.71 ± 0.7	Ki [1]: 7.04 mM; type of inhibition (Lineweaver-Burk plot) ([1]; different inhibitor concentrations, 0.3 nM MtuUng): linear mixed inhibition
O=c1[nH]cc(F)c(=O)[nH]1 [5-Fluoro-Uracil]	50.2 ± 3.85	–
O=c1[nH]cc(I)c(=O)[nH]1 [5-Iodo-Uracil]	4.92 ± 0.51	–
O=[N+]([O-])c1cnc(O)nc1O [5-Nitro-Uracil]	10.8 ± 0.32	–
O=C1CC(=O)NC(=O)N1 [Barbituric acid]	7.29 ± 0.32	–
O=c1cc[nH]c(=O)[nH]1 [Uracil]	2.05 ± 0.3	mode of inhibition (uracil DNA glycosylase): non-competitive
